This assay concerns Acvr1^huecto[R206H]FIEx;[S330P]/+; Nanog-Cre mice ("FOP mice"). Kind of assay: Anti-Activin A antibody treatment of FOP mice: survival and HO formation. It is filed as in vivo, mouse. How it is done: Wild type mice and Acvr1^huecto[R206H]FIEx;[S330P]/+; Nanog-Cre mice (“FOP mice”) were treated with an anti-Activin A monoclonal antibody (Garetosmab) or an isotype control antibody.
Wild type mice and Acvr1^huecto[R206H]FIEx;[S330P]/+; Nanog-Cre mice (“FOP mice”) were treated with an anti-Activin A monoclonal antibody (Garetosmab) and an isotype control antibody. […] The deaths in untreated FOP mice are believed to be possibly due to jaw HO.

The values that follow come from patent US20250295096A1, “A RODENT MODEL OF FIBRODYSPLASIA OSSIFICANS PROGRESSIVA” (REGENERON PHARMACEUTICALS, INC., priority 2022, published 2025).

In the case of “Garetosmab: anti-Activin A monoclonal antibody”, the HO formation result (compared with isotype control antibody) is reported as “inhibited HO formation”. For the setting “treatment initiated at 2 weeks of age, survival through 8 weeks of age”, this substance yielded a survival of 100%.
